Values of other authors, collected in patent publication US10294264B2, “Oxysterol-therapeutic agent derivative for bone healing” (Warsaw Orthopedic, Inc., priority 2017, dated 2019).
Where two headings read alike, the source gives them in different places.

Tests used:
spine fusion model [1] = settings: rabbit spine fusion model
Mesenchymal stem cells = settings: mesenchymal stem cells treated with compound
spine fusion model [2] = settings: rat spine fusion model
osteoprogenitor cells = settings: in vitro

CCCCCC[C@](C)(O)[C@H]1CC[C@H]2[C@@H]3C[C@H](O)[C@H]4C[C@@H](O)CC[C@]4(C)[C@H]3CC[C@@]21C [OXY133, (3S,5S,6S,8R,9S,10R,13S,14S,17S)-17-((S)-2-hydroxyoctan-2-yl)-10,13-dimethylhexadecahydro-1H-cyclopenta[a]phenanthrene-3,6-diol]
bone formation in vivo (spine fusion model [1]): robust bone formation
osteoblast differentiation (Mesenchymal stem cells): increased osteoblast differentiation
bone formation in vivo (spine fusion model [2]): robust bone formation
osteogenic differentiation of osteoprogenitor cells (osteoprogenitor cells): induces osteogenic differentiation
